≈ marks a conversion by molar mass, not a printed value.
System: KB
Assay: Cytotoxicity against human KB cells
Type: functional
Conditions: read-out: ED50 (the source's name)

| Compound | EC50 [µg/mL] |
| --- | --- |
| CS(=O)(=O)CC[C@H]1CCC(=O)O1 [ERYSULFONE] | 21 (≈ 109 µM) |
| C[S+]([O-])CC[C@H]1CCC(=O)O1 (stereo partly drawn) [ERYSULFOXIDE] | 2.3 (≈ 13.1 µM) |
| C[C@]12CC[C@H]3[C@@H](CC[C@]4(O)C[C@@H](O)CC[C@]34C=O)[C@@]1(O)CC[C@@H]2C1=CC(=O)OC1 [STROPHANTHIDIN] | 0.44 (≈ 1.09 µM) |
